# Laboratory results from patent publication US20080081039A1, “Inorganic Selenium For Treatment Of Cancer” (priority 2004, published 2008).
# Values joined by “and” are separate entries in the source; they are usually repeats but may differ in a detail not shown here. Equal values may be shown once. Read-outs that look alike come from different tables or passages of the source.
# Tests used:
# [1] = system: PC-3 cells; conditions: 24-72 hours
# Method: Analysis of PC-3 growth curves were achieved by allowing 2×10^5 PC-3 cells to attach overnight. […] Supernatants and cells were then harvested, combined and viable cells assessed by Trypan Blue exclusion assay. Experiments were performed in triplicate.
# [2] = system: PC-3 cells
# Method: Cells were allowed to grow until the indicated time points, then harvested, washed in PBS and fixed in ice cold 70% ethanol for 15 minutes. Cells were washed with PBS and resuspended in PBS containing 40 μg/mL of propidum iodide (Sigma) and […] of RNase. DNA histograms were generated for each reading and the proportion of cells present in the G1 and G2/M peaks determined. Results were obtained for three independent experiments.
# [3] = system: cell cycle regulatory proteins (cyclin D1, cdk4, cdk6, p27KIP1, p21CIP1); test: Immunoblot of cell cycle regulatory proteins in PC-3 cells; format: cell-based, human
# Text: (§1) The following antibodies were obtained from Cell Signaling Technology (Beverly, Mass., USA) unless otherwise stated: anti-p27^KIP1 (bd Pharmingen), anti-p21^CIP1 , ANTI-CYCLIN d1, ANTI-CYCLIN d3, ANTI-CDK4, ANTI-CDK6, ANTI-PHOSPHO rb (Ser807/811), anti-RB, anti-phospho Akt (Ser473), anti-phospho Akt (Thre308), anti-Akt, anti-phospho PDK1 (Ser241), anti-phospho PDK1 (Tyr373/376), anti-phospho GSK-3β, anti-phospho mTOR (Ser2448), anti-mTOR, anti-βIII tubulin (Promega).
# (§2) To determine the effect of selenate on the phosphorylation of proteins involved in the PI3K/Akt signaling cascade, 5×10^5 PC-3 cells were allowed to attach for 10 hours. […] Cells were lysed in ELB (250 mM NaCl, 50 mM HEPES pH 7.0, 5 mM EDTA, 0.5 mM DTT, 0.2% TX100, 20 mM sodium fluoride, 2 mM sodium pervanadate, Complete Protease Inhibitor Cocktail (Roche)). Lysates were centrifuged for 15 minutes at 4° C. Protein concentration was determined using the BCA system (Sigma) and equal amounts of protein were loaded into each lane of a SDS-polyacrylamide gel. The proteins were transferred onto PVDF (Millipore) membranes and detected with anti-mouse or anti-rabbit secondary antibodies couples to horseradish peroxidase (HRP) and chemiluminescence using the SuperSignal West Dura (Pierce). Membranes were stripped using the Restore Western Blot Stripping Buffer (Pierce).
# [4] = system: GSK-3β; conditions: 0.5 mM, various time periods
# Text: as §1, §2
# [5] = system: PDK1; conditions: 0.5 mM, out to 6 hours
# Text: as §1, §2
# [6] = system: mTOR; conditions: 0.5 mM, various time periods
# Text: as §1, §2
# [7] = system: retinoblastoma protein (Rb ser807/811); conditions: 0.5 mM, time-dependent
# Text: as §1, §2
# [8] = system: Akt; test: Immunoblot of Akt phosphorylation in serum starved PC-3 cells; format: cell-based, human; conditions: 0.5 mM
# Text: as §1, §2
# [9] = system: prostate tumor PC-3 cells
# Method: 1×10^6 prostate tumor PC-3 cells were injected into the prostate of nude mice. […] Paclitaxel at 10 mg/kg was administered intraperitoneally once per week in 10% Cremophor EL/25% ethanol/65% PBS solution to those animals receiving paclitaxel. 10 animals were used per group. After 5 weeks post injection, animals were sacrificed, the prostates removed, the appendages dissected off and the tumors weighed. The retroperitoneum was explored for lymphadenopathy and lymph nodes greater than 0.5 mm diameter excised. The tumors were then step sectioned at 50 micron steps and tumor volumes calculated from the digitized images using the standard volumetric formula […].
# [10] = system: human prostate cancer PC-3 cells; test: Cell toxicity by Trypan Blue Exclusion, selenate versus selenite; conditions: 5 μM or 50 μM, 24 to 96 hours
# Method: 5×10^3 human prostate cancer PC-3 cells were seeded in a 24-well dish and 8 hours later were treated with either 5 μM or 50 μM of selenate or selenite. The dose range of 5 μM or 50 μM is equivalent to 0.1 mg/kg to 1.25 mg/kg. Cells were harvested at 24, 48, 72 and 96 hours following the addition of selenate or selenite and the percentage of viable cells as assessed by Trypan Blue staining was determined.
# All cells in the tissue culture wells were then harvested sequentially at periods between 24 and 96 hours following addition of the treatments. The percentage of viable cells were then determined using the Trypan Blue exclusion assay.
# [11] = system: androgen independent CSS LNCaP cells
# Method: 5×10^4 human prostate cancer androgen independent CSS LNCaP cells were seeded in a 6-well dish and 8 hours later were treated with either 50 μM selenate or not (control).
# The parental androgen-sensitive LNCaP cell line was obtained from the American Type Culture Collection (Manassas, Va., USA) and routinely cultured in […] (Invitrogen) supplemented with 10% foetal calf serum and 1% antibiotic/antimycotic mixture (Invitrogen). Cells were maintained at 37° C. in 5% CO2. To select androgen independent LNCaP cells LNCaPs were cultured in […] (Invitrogen) in 5% Charcoal stripped serum (CSS) (Invitrogen) which has removed all detectable traces of testosterone, for 6-8 weeks and obtained LNCaP cell lines which were now able to freely proliferate in the absence of testosterone. These cells are referred to as CSS LNCaPs.
# Between 5×10^4 (FIGS. 1-2) and 1×10^5 LNCaP, CSS LNCaP or Q293 cells were allowed to attach overnight. […] Supernatants and cells were then harvested, combined and viable cells assessed by Trypan Blue exclusion assay. Experiments were performed in triplicate.
# [12] = system: human prostate tumor cells; conditions: in comparison to organic selenomethionine, methylselenocysteine or selenized yeast; cited from earlier work
smiles,measurement,setting,value
O=[Se](=O)(O)O [sodium selenate],PC-3 cell number,[1]; doses of 0.01 to 0.1 mM,rate of increase in cell number was impeded
same,PC-3 cell number,[1]; doses of 0.25 and 0.5 mM,all increases in cell number were blocked
same,percentage of the cell population in G1,"[2]; 0.25 and 0.5 mM, 24 hours, control 55%",69-70%
same,percentage of PC-3 cells at G2/M phase,[2]; 48 hours,decreased
same,percentage of the cell population in G1,"[2]; 48 hours, dose- and time-dependent",increased
same,percentage of cells at G2/M phase,"[2]; increasing concentrations (0.25, 0.5 mM), 24 hours, control 28%",19% and 24%
same,"p27KIP1 total protein levels, inorganic versus organic selenium","[3]; 0.5 mM, compared to control (0 hours), FIG. 3C",markedly boosted
same,expression levels of cyclin D1,"[3]; 0.5 mM, from the 14 hour time period",dropped significantly
same,cdk4 levels,"[3]; 0.5 mM, out to 24 hours",peaked at 6 hours and declined in time dependent manner to 24 hours
same,p21CIP1 levels,"[3]; 0.5 mM, peaking at 6 hours",marked increase
same,p27KIP1 levels,"[3]; 0.5 mM, time-dependent till 24 hours",increased
same,cdk6 levels,[3]; high dose (0.5 mM),remained relatively unchanged
same,GAK-3β phosphorylation status,[4],induced a decline
same,"phosphorylation status of PDK1 (ser241, tyr373/376)",[5],no effect
same,mTOR phosphorylation status,[6],induced a decline
same,phosphorylation of Rb (ser807/811),[7],marked decline
same,total cellular Akt levels (pan Akt),[8],essentially unchanged
same,Akt activation after the transient boost,[8]; later exposure times,marked and prolonged deactivation
same,Akt phosphorylation at Ser473,"[8]; various time points, FIG. 4D",profoundly inhibited
same,"phosphorylation of Akt at Ser473 and Thr308, early",[8]; within 10 minutes of exposure,transient boost
same,prostate tumor weights,"[9]; 5 ppm selenium in drinking water and/or paclitaxel 10 mg/kg intraperitoneally once per week, 5 weeks, control received Cremophor/ethanol carrier",not reduced compared to the control
same,microvessel density in the tumors,"[9]; selenate alone, 5 ppm in drinking water",greater effect on reducing microvessel density in the tumors than on tumor volumes
same,cytotoxic effect (Trypan Blue exclusion),[10],not cytotoxic
same,percentages of viable cells,[10],equivalent to the control untreated samples
same,CSS LNCaP cell proliferation,"[11]; 5 μM, 9 days, absence of androgen (charcoal stripped serum)",synergizes with androgen ablation to markedly reduce
same,androgen independent CSS LNCaP cell proliferation,"[11]; 5 μM, 9 days, presence of testosterone (normal serum)",markedly reduces
same,sensitivity of androgen independent cells versus parental LNCaP cells,"[11]; 50 μM, 72 hours",even more sensitive
same,CSS LNCaP cell proliferation,"[11]; 50 μM, 72 hours, presence or absence of androgen",synergizes with androgen ablation to reduce
same,tumor progression,[12],significantly reduces tumor progression
